# Measured values: ChEMBL document CHEMBL5038588 (J Med Chem, 2021)
# Tests used:
# BaF3 [1] = assay: cells; details: Mus musculus, BaF3, 48 h
# Jurkat = assay: Cytotoxicity against human Jurkat cells assessed as inhibition of cell growth measured after 72 hrs by MTT assay; assay type: functional, cell-based
# U-937 = assay: Cytotoxicity against human U-937 cells assessed as inhibition of cell growth measured after 72 hrs by MTT assay; assay type: functional, cell-based; details: U-937, 72 h
# K562 [2] = assay: cells; details: Homo sapiens, K562, 72 h
# BaF3 [3] = assay: cells; details: Mus musculus, BaF3, 72 h
# KU812 cell line = assay: Cytotoxicity against human KU812 cells assessed as inhibition of cell growth measured after 72 hrs by MTT assay; assay type: functional, cell-based; details: KU812, 72 h
# BaF3 [4] = assay: Inhibition of cell proliferation in mouse BaF3 cells expressing BCR-ABL T315I mutant assessed as cell viability at 100 uM measured after 48 hrs by trypan blue based assay (RVB=100%); assay type: functional; details: read-out: Activity
# [5] = AUC (0 to t) in ICR mouse at 15 mg/kg, po measured upto 24 hrs by LC/MS/MS analysis; assay type: ADME, organism-based; parameters: route oral, dose 15 mg/kg, time <=24; details: in vivo
# [6] = AUC (0 to infinity) in ICR mouse at 5 mg/kg, iv measured upto 24 hrs by LC/MS/MS analysis; assay type: ADME, organism-based; parameters: route intravenous, dose 5 mg/kg, time <=24; details: in vivo
# BaF3 [7] = assay: animal or person; details: Mus musculus, BaF3, po, 360 h, read-out: TGI
# [8] = MRT in ICR mouse at 15 mg/kg, po measured upto 24 hrs by LC/MS/MS analysis; assay type: ADME, organism-based; details: in vivo
# [9] = Cmax in ICR mouse at 5 mg/kg, iv measured upto 24 hrs by LC/MS/MS analysis; assay type: ADME, organism-based; parameters: route intravenous, dose 5 mg/kg, time <=24; details: in vivo
# [10] = Half life in ICR mouse at 5 mg/kg, iv measured upto 24 hrs by LC/MS/MS analysis; assay type: ADME, organism-based; details: in vivo
# [11] = AUC (0 to t) in ICR mouse at 5 mg/kg, iv measured upto 24 hrs by LC/MS/MS analysis; assay type: ADME, organism-based; parameters: route intravenous, dose 5 mg/kg, time <=24; details: in vivo
# [12] = Oral bioavailability in ICR mouse at 15 mg/kg measured upto 24 hrs by LC/MS/MS analysis; assay type: ADME, organism-based; details: in vivo
# [13] = MRT in ICR mouse at 5 mg/kg, iv measured upto 24 hrs by LC/MS/MS analysis; assay type: ADME, organism-based; details: in vivo
# [14] = Half life in ICR mouse at 15 mg/kg, po measured upto 24 hrs by LC/MS/MS analysis; assay type: ADME, organism-based; details: in vivo
# [15] = AUC (0 to infinity) in ICR mouse at 15 mg/kg, po measured upto 24 hrs by LC/MS/MS analysis; assay type: ADME, organism-based; parameters: route oral, dose 15 mg/kg, time <=24; details: in vivo
# [16] = Tmax in ICR mouse at 5 mg/kg, iv measured upto 24 hrs by LC/MS/MS analysis; assay type: ADME, organism-based; details: in vivo
# [17] = Tmax in ICR mouse at 15 mg/kg, po measured upto 24 hrs by LC/MS/MS analysis; assay type: ADME, organism-based; details: in vivo
# [18] = Clearance in ICR mouse at 5 mg/kg, iv measured upto 24 hrs by LC/MS/MS analysis; assay type: ADME, organism-based; details: in vivo
# [19] = Volume of distribution at steady state in ICR mouse at 5 mg/kg, iv measured upto 24 hrs by LC/MS/MS analysis; assay type: ADME, organism-based; details: in vivo, read-out: Vdss
# K562 [20] = details: Homo sapiens
# [21] = Cmax in ICR mouse at 15 mg/kg, po measured upto 24 hrs by LC/MS/MS analysis; assay type: ADME, organism-based; parameters: route oral, dose 15 mg/kg, time <=24; details: in vivo
smiles,measurement,setting,value
Cc1cn(-c2cc(NC(=O)c3ccc(C)c(Nc4nccc(-c5cccnc5)n4)c3)cc(C(F)(F)F)c2)cn1 [NILOTINIB],IC50,BaF3 [1],> 100 nM
same,IC50,Jurkat,> 1000 nM
same,IC50,U-937,> 1000 nM
same,IC50,K562 [2],1.8 nM
same,IC50,BaF3 [3],11.8 nM
same,IC50,KU812 cell line,1.8 nM
Cc1ccc(C(=O)Nc2ccc3c(c2)C(F)(F)C[C@H]3N2CCN(C)CC2)cc1C#Cc1cnc(NC2CC2)nc1,IC50,BaF3 [1],> 100 nM
same,IC50,Jurkat,400 nM
same,IC50,U-937,465 nM
same,IC50,K562 [2],10.4 nM
same,IC50,BaF3 [3],62.5 nM
same,IC50,KU812 cell line,5.2 nM
CN1CCN(Cc2ccc3nc(-c4ccc(Cl)c(C#Cc5cnc(NC6CC6)nc5)c4)[nH]c3c2)CC1,viability at 100 µM,BaF3 [4],105%
Cc1ccc(C(=O)Nc2ccc(CN3CCN(C)CC3)c(C(F)(F)F)c2)cc1C#Cc1cnc2cccnn12 [PONATINIB],AUC(0-t) at 24 h,[5],363 ng·h/mL
same,AUC(0-inf),[6],528 ng·h/mL
same,inhibition in vivo at 5 mg/kg,BaF3 [7],53%
same,MRT,[8],5.25 h
same,IC50,Jurkat,295 nM
same,Cmax,[9],270 ng/mL
same,half-life,[10],3.28 h
same,AUC(0-t) at 24 h,[11],497 ng·h/mL
same,bioavailability,[12],27%
same,MRT,[13],4.29 h
same,half-life,[14],2.84 h
same,AUC(0-inf),[15],432 ng·h/mL
same,Tmax,[16],4.8 min
same,Tmax,[17],1.5 h
same,clearance,[18],161 mL/min/kg
same,Vd,[19],41 L/kg
same,viability at 100 µM,BaF3 [4],2.8%
same,IC50,U-937,246 nM
same,IC50,K562 [20],10 nM
same,IC50,BaF3 [3],0.9 nM
same,Cmax,[21],70 ng/mL
same,IC50,KU812 cell line,0.1 nM
CN1CCN(Cc2ccc3nc(-c4ccc(Cl)c(C#Cc5cnc6cccnn56)c4)[nH]c3c2)CC1,viability at 100 µM,BaF3 [4],94.5%
Cc1ccc(-c2nc3ccc(CN4CCN(C)CC4)cc3[nH]2)cc1C#Cc1cnc(NC2CC2)nc1,viability at 100 µM,BaF3 [4],90.4%
Cc1cn(-c2ccc3nc(-c4ccc(C)c(C#Cc5cnc6cccnn56)c4)[nH]c3c2)cn1,viability at 100 µM,BaF3 [4],94.1%
CN1CCN(Cc2ccc(NC(=O)N3CCCC(C#Cc4cnc5cccnn45)C3)cc2C(F)(F)F)CC1 (stereo unspecified),viability at 100 µM,BaF3 [4],84.3%
Cc1ccc(-c2nc3ccc(CN4CCN(C)CC4)cc3[nH]2)cc1C#Cc1cnc2cccnn12,viability at 100 µM,BaF3 [4],84.5%
CN1CCN(Cc2ccc3nc(-c4ccc(Cl)c(C#Cc5ccc(NC6CCC6)nn5)c4)[nH]c3c2)CC1,viability at 100 µM,BaF3 [4],97.4%
